Test results as given in publication PMC10714390, “Quinoline Compounds Targeting the c-Ring of ATP Synthase Inhibit Drug-Resistant Pseudomonas aeruginosa” (ACS Infectious Diseases, 2023).
pIC50: −log10 of the molar value. Where “and” joins values, the source holds several entries; their conditions need not be identical. Equal entries are not always repeated.

Experiments:
[1] = test system: PA electron transport chain; experiment: Electron transport activity (NADH-driven H+ pumping, ACMA quenching), PA vesicles; type: biochemical, Pseudomonas aeruginosa; conditions: for inhibition of PA ETC-driven H+ pumping, in words: 0-64 µg/mL, Figure S2; for Inhibition of the PA electron transport chain IC50: PA vesicles
Protocol: (§1) Determination of electron transport activity. In an opaque black 96-well plate, inverted membrane
(§2) vesicles from PA or E. coli DK8 pASH20 were added to HMK buffer containing 0.3 µg/mL 9-amino-6-chloro-
(§3) 2-methoxyacridine (ACMA) and 0-64 µg/mL test compound in DMSO. After measurement of baseline
(§4) ACMA fluorescence for 60 s, redox-driven H+ pumping was initiated by addition of NADH to 0.8 mM, and
(§5) fluorescence quenching was monitored for 120 s before addition of nigericin to 0.5 µg/mL. Relative
(§6) activity is reported as the minimum fluorescence value normalized to the maximum fluorescence value
(§7) following addition of nigericin. […]

[2] = test system: EC electron transport chain; experiment: Electron transport activity (NADH-driven H+ pumping, ACMA quenching), E. coli DK8/pASH20 vesicles; type: biochemical, Escherichia coli; conditions: for inhibition of EC ETC-driven H+ pumping, in words: 0-64 µg/mL, Figure S2; for Inhibition of the EC electron transport chain IC50: EC (DK8/pASH20) vesicles
Protocol: as §1, §2, §3, §4, §5, §6, §7

[3] = test system: drug-resistant P. aeruginosa BAA 2109; experiment: Antimicrobial susceptibility (broth microdilution), BAA 2109; type: cell-based, Pseudomonas aeruginosa; conditions: for MIC: Pseudomonas aeruginosa, BAA2109, read-out: antibacterial activity (MIC) BAA 2109; for antibacterial activity in words, BAA 2109: summary of Table 1
Protocol: (§8) The following are general steps, unless otherwise noted. All steps were completed using aseptic techniques. All media and glassware were sterilized via an autoclave at 121 °C for 60 min. All agitation occurred at 160 rpm in a temperature-controlled console shaker (Excella E25) at 37 °C. Full-strength tryptic soy broth (TSB) was made by dissolving 30 g of BD Bacto TSB powder in 1 L of deionized water. Purchased and acquired bacterial strains used were E. coli (ATCC 25922), P. aeruginosa (ATCC 9027), drug-resistant P. aeruginosa from ATCC Panel MP-23 (BAA 2108, BAA 2109, BAA 2110), and P. aeruginosa efflux knockout GKCW120 (PΔ6)[6] provided by Zgurskaya and co-workers at the University of Oklahoma.
(§9) Susceptibility testing was performed in biological triplicate using the broth microdilution method as outlined by the Clinical and Laboratory Standards Institute. […] Briefly, to each well, 1 μL of compound in DMSO, 89 μL of TSB, and 10 μL of bacterial inoculum, grown from a single colony in 10 mL of TSB for 4–6 h, were added. After incubation for 12–15 h at 37 °C, absorbance at 590 nm was read on a Biotek Synergy HTX Multimode plate reader. Data were processed by background subtracting the media absorbance and then normalizing the data to full bacterial growth with the vehicle only. MIC is defined as the lowest concentration of antibiotic or antibiotic/adjuvant combination that achieves ≥85% growth inhibition, which corresponds to no visible growth.

[4] = target: T1, PA ATP synthase cIle65Phe mutant (Pseudomonas aeruginosa, UniProt Q9HT15, I65F); experiment: NADH-driven ATP synthesis inhibition, DK8/pASH20 cI65F membrane vesicles; type: biochemical; conditions: for Hill coefficient of dose response fit, DK8/pASH20 cI65F vesicles: inhibition of ATP synthesis activity
T1 construct: expressed in transfected cells; host or cells: E. coli K-12 DK8 transformed with pASH20 carrying mutated atpE
Protocol: (§10) P. aeruginosa (ATCC 9027) was streaked onto a 10% TSB agar plate and incubated at room temperature for 72 h. A single colony was resuspended in 100 μL of H2O, and 5 μL was used as the DNA template for PCR with Q5 polymerase (NEB) and […] each of forward and reverse primers. Primers were complementary to regions flanking the atp operon and included sequences for HindIII and NdeI restriction sites (see the SI for primer sequences). The resulting 6.9 kbp DNA fragment was digested with HindIII and NdeI and ligated into digested vector pBR322 (New England Biolabs). The resultant pASH20(-i) plasmid contains a partial atpI gene. To complete the atpI gene, the HindII-XhoI fragment of pASH20(-i) was replaced with a synthetic fragment with a complete atpI (Twist Bioscience) to yield pASH20. The sequence of the entire operon was verified by Sanger DNA sequencing through the ligation sites. Subunit c mutations were introduced by exchanging the XhoI-BamHI fragment containing atpE with a synthetic fragment containing mutated atpE (Twist Bioscience).
(§11) Vesicles were prepared from P. aeruginosa and transformed E. coli cells as previously described.[22] Briefly, cells were grown in LB liquid medium at 37 °C with shaking and harvested by centrifugation after 7 h of growth. Cultures of transformant E. coli included 100 μg/mL ampicillin. Cells were disrupted in TMG buffer (50 mM Tris-HCl, MgCl2, 10% (v/v) glycerol, pH 7.5) using an Avestin B15 homogenizer at 19,000 psi. After unbroken cells and debris were cleared by centrifugation at 9000g, inverted vesicles were collected by centrifugation at 193,000g, resuspended in TMG buffer, and stored at −80 °C. Protein concentrations were determined using a modified Lowry assay.[25]
(§12) Continuous ATP synthesis activity of inverted membrane vesicles was measured using a luciferin/luciferase luminescence assay as previously described.[22] Inhibition of ATP synthesis activity by test compounds was determined using an end point assay essentially as previously described.[18],[26] In this assay, the synthesis reaction was initiated by 2.5 mM NADH, proceeded for 10 min, and was stopped with 1% trichloroacetic acid, 2 mM CCCP, and 10 mM EDTA. Samples from each reaction were diluted 500-fold prior to the addition of luciferase since quinoline compounds are known to inhibit luciferase.[27] This dilution was sufficient to minimize inhibition of luciferase (Figure S4). Each replicate set included a positive control containing DMSO with no compound and a negative control containing carbonyl cyanide m-chlorophenyl hydrazone. Luminescence values were corrected for the background by subtracting the negative control and then normalized to the positive control within the same replicate. Dose–response curves were fit using eq 1, where activity is the relative ATP synthesis activity, [I] is the concentration of inhibitor in μg/mL, and n is the Hill coefficient. [drawing 1] 1

[5] = test system: P. aeruginosa efflux knockout GKCW120 (PΔ6); experiment: Antimicrobial susceptibility (broth microdilution), PΔ6 efflux knockout; type: cell-based, Pseudomonas aeruginosa; conditions: for Antibacterial activity screening result, P∆6: at 128 µg/mL in DMSO; for antibacterial activity (MIC) PΔ6: n = 3, >85% reduction in growth at OD 590 nm; for antibacterial activity in words, PΔ6: summary of Table 1
Protocol: as §8, §9
Initial antibacterial activity screen of compounds 4, 5, and S1-S6
Compounds 4, 5, and S1-S6 were screened for initial antibiotic activity against a susceptible laboratory strain of EC (designated EC 25922), and non-virulent, biofilm forming strain of PA (designated PA 9027), and PD6 (efflux knockout strain6) at 128 µg/mL in DMSO. Sterilization and Antimicrobial Susceptibility Assay procedures utilized were the same as described in the methods.
Table S1. Antibacterial activity screening results for compounds 4, 5, and S1-S6 at 128 µg/mL
Table S1. Antibacterial activity screening results for compounds 4, 5, and S1-S6 at 128 µg/mL.

[6] = target: T2, PA ATP synthase expressed in E. coli DK8/pASH20 (Pseudomonas aeruginosa, UniProt Q9HT15); experiment: NADH-driven ATP synthesis inhibition, DK8/pASH20 membrane vesicles; type: biochemical; conditions: for pIC50: ATP synthesis IC50, DK8/pASH20 vesicles, wild-type PA ATP synthase in E. coli DK8, NADH-driven, end point luminescence assay; for Hill coefficient of dose response fit, DK8/pASH20 vesicles: inhibition of ATP synthesis activity
T2 construct: expressed in transfected cells; host or cells: E. coli K-12 DK8 (lacks its own ATP synthase) transformed with pASH20 (pBR322 derivative)
Protocol: as §10, §11, §12

[7] = Solubility in DMSO; type: physicochemical

| Structure (SMILES) | inhibition of PA ETC-driven H+ pumping, in words [1] | Inhibition of the PA electron transport chain IC50 [1] [µg/mL] | inhibition of EC ETC-driven H+ pumping, in words [2] | Inhibition of the EC electron transport chain IC50 [2] [µg/mL] | MIC [3] [µg/mL] | antibacterial activity in words, BAA 2109 [3] | pIC50 [4] | fold reduction in IC50, cIle65Phe mutant relative to wild type ([4]; ATP synthesis inhibition, DK8/pASH20 vesicles) | Hill coefficient of dose response fit, DK8/pASH20 cI65F vesicles [4] | Antibacterial activity screening result, P∆6 [5] | antibacterial activity (MIC) PΔ6 [5] [µg/mL] | antibacterial activity in words, PΔ6 [5] | pIC50 [6] | Hill coefficient of dose response fit, DK8/pASH20 vesicles [6] | solubility in dimethyl sulfoxide (DMSO) ([7]; at 128 μg/mL) | solubility in dimethyl sulfoxide (DMSO) ([7]; at 256 μg/mL) |
| --- | --- | --- | --- | --- | --- | --- | --- | --- | --- | --- | --- | --- | --- | --- | --- | --- |
| CSc1nc2ccccc2cc1CNCc1ccc(CN(C)C)cc1 [Compound 4, N,N-Dimethyl-1-(4-((((2-(methylthio)quinolin-3-yl)methyl)amino)methyl)phenyl)methanamine] | some inhibition | 29 | mildly inhibited | 61 | 256 | able to inhibit | 4.89 | greater than 6 fold | 1.4 | I | 64 to 128 | weakly inhibit | 4.06 and 4.07 | 1.0 | very soluble | fully soluble |
| CN(C)Cc1ccc(CNCc2cc3ccccc3nc2SCc2ccccc2)cc1 [Compound 5, 1-(4-((((2-(Benzylthio)quinolin-3-yl)methyl)amino)methyl)phenyl)-N,N-dimethylmethanamine] | some inhibition | 27 | mildly inhibited | >64 | > 128 | inactive | 5.09 |  | 1.8 | I | 16 | more potent | 5.27 | 1.3 | very soluble | partially soluble |
